Results as given in ChEMBL document CHEMBL3885881, “DrugMatrix”.

Species on record: Rattus norvegicus
Assay: DrugMatrix - Regimen: Daily Repeat
Format: toxicity, organism-based, Sprague-Dawley
Set-up: regimen Daily Repeat, gender Male, age 6-8 weeks
Settings: in vivo, sc, route subcutaneous, […]; for ABSOLUTE BASOPHIL / ABSOLUTE EOSINOPHIL / ABSOLUTE LYMPHOCYTE / ABSOLUTE MONOCYTE / ABSOLUTE SEGMENTED NEUTROPHIL / BASOPHIL / EOSINOPHIL / ERYTHROCYTE COUNT / HEMATOCRIT / HEMOGLOBIN / LEUKOCYTE COUNT / LYMPHOCYTE / MEAN CORPUSCULAR HEMOGLOBIN / MEAN CORPUSCULAR HEMOGLOBIN CONCENTRATION / MEAN CORPUSCULAR VOLUME / MONOCYTE / NEUTROPHIL / NUCLEATED RED BLOOD CELLS / PLATELET COUNT: tissue Blood; for ALANINE AMINOTRANSFERASE / ALBUMIN / ALKALINE PHOSPHATASE / ASPARTATE AMINOTRANSFERASE / BLOOD UREA NITROGEN / CARBON DIOXIDE / CHLORIDE / CHOLESTEROL / CREATINE PHOSPHOKINASE / CREATININE / GLUCOSE / LACTATE DEHYDROGENASE / LIPASE / PHOSPHORUS / POTASSIUM / SODIUM / TOTAL BILIRUBIN / TOTAL PROTEIN / URIC ACID: tissue Plasma
[1] = 18 mg/kg, 120 h, dose level High, time 5 day
[2] = 72 h, dose 1.8 mg/Kg, dose level Low, time 3 day
[3] = 120 h, dose 1.8 mg/Kg, dose level Low, time 5 day

Compound: CN(C)c1ccc(C(=C2C=CC(=[N+](C)C)C=C2)c2ccc(N(C)C)cc2)cc1.[Cl-] [GENTIAN VIOLET]
- ABSOLUTE BASOPHIL [1]: 0 CELLS/uL
- ABSOLUTE EOSINOPHIL [1]: 0 CELLS/uL
- ABSOLUTE LYMPHOCYTE [1]: 15601 CELLS/uL
- ABSOLUTE MONOCYTE [1]: 1849 CELLS/uL
- ABSOLUTE SEGMENTED NEUTROPHIL [1]: 7750 CELLS/uL
- BASOPHIL [1]: 0%
- EOSINOPHIL [1]: 0%
- ERYTHROCYTE COUNT [1]: 5.48 x10E6/uL
- HEMATOCRIT [1]: 32.93%
- HEMOGLOBIN [1]: 12.37 G/DL
- LEUKOCYTE COUNT [1]: 25.2 x10E3/uL
- LYMPHOCYTE [1]: 61.67%
- MEAN CORPUSCULAR HEMOGLOBIN [1]: 22.57 pg
- MEAN CORPUSCULAR HEMOGLOBIN CONCENTRATION [1]: 37.57 G/DL
- MEAN CORPUSCULAR VOLUME [1]: 60.17 fL
- MONOCYTE [1]: 7.33%
- NEUTROPHIL [1]: 31%
- NUCLEATED RED BLOOD CELLS [1]: 0 /100WBC
- PLATELET COUNT [1]: 1331.67 x10E3/uL
- ALANINE AMINOTRANSFERASE [1]: 49 u/L
- ALBUMIN [1]: 3.03 G/DL
- ALKALINE PHOSPHATASE [1]: 294.67 u/L
- ASPARTATE AMINOTRANSFERASE [1]: 116 u/L
- BLOOD UREA NITROGEN [1]: 16.33 mg/dL
- CARBON DIOXIDE [1]: 30.67 mmol/L
- CHLORIDE [1]: 100 MEQ/L
- CHOLESTEROL [1]: 62.33 mg/dL
- CREATINE PHOSPHOKINASE [1]: 196.33 u/L
- CREATININE [1]: 0.16 mg/dL
- GLUCOSE [1]: 141.33 mg/dL
- LACTATE DEHYDROGENASE [1]: 146.33 u/L
- LIPASE [1]: 8 u/L
- PHOSPHORUS [1]: 11.3 mg/dL
- POTASSIUM [1]: 6.88 MEQ/L
- SODIUM [1]: 143.85 MEQ/L
- TOTAL BILIRUBIN [1]: 0.13 mg/dL
- TOTAL PROTEIN [1]: 5.57 G/DL
- URIC ACID [1]: 1.37 mg/dL
- ABSOLUTE BASOPHIL [2]: 0 CELLS/uL
- ABSOLUTE EOSINOPHIL [2]: 115.33 CELLS/uL
- ABSOLUTE LYMPHOCYTE [2]: 15675.67 CELLS/uL
- ABSOLUTE MONOCYTE [2]: 309.33 CELLS/uL
- ABSOLUTE SEGMENTED NEUTROPHIL [2]: 2499.67 CELLS/uL
- BASOPHIL [2]: 0%
- EOSINOPHIL [2]: 0.67%
- ERYTHROCYTE COUNT [2]: 5.43 x10E6/uL
- HEMATOCRIT [2]: 34.87%
- HEMOGLOBIN [2]: 12.97 G/DL
- LEUKOCYTE COUNT [2]: 18.6 x10E3/uL
- LYMPHOCYTE [2]: 84.33%
- MEAN CORPUSCULAR HEMOGLOBIN [2]: 23.9 pg
- MEAN CORPUSCULAR HEMOGLOBIN CONCENTRATION [2]: 37.2 G/DL
- MEAN CORPUSCULAR VOLUME [2]: 64.3 fL
- MONOCYTE [2]: 1.67%
- NEUTROPHIL [2]: 13.33%
- NUCLEATED RED BLOOD CELLS [2]: 0 /100WBC
- PLATELET COUNT [2]: 1276.67 x10E3/uL
- ALANINE AMINOTRANSFERASE [2]: 46 u/L
- ALBUMIN [2]: 3.93 G/DL
- ALKALINE PHOSPHATASE [2]: 341 u/L
- ASPARTATE AMINOTRANSFERASE [2]: 77.33 u/L
- BLOOD UREA NITROGEN [2]: 15 mg/dL
- CARBON DIOXIDE [2]: 26.67 mmol/L
- CHLORIDE [2]: 102 MEQ/L
- CHOLESTEROL [2]: 86.67 mg/dL
- CREATINE PHOSPHOKINASE [2]: 247 u/L
- CREATININE [2]: 0.19 mg/dL
- GLUCOSE [2]: 138.67 mg/dL
- LACTATE DEHYDROGENASE [2]: 298.33 u/L
- LIPASE [2]: 9.33 u/L
- PHOSPHORUS [2]: 11.5 mg/dL
- POTASSIUM [2]: 6.51 MEQ/L
- SODIUM [2]: 144.73 MEQ/L
- TOTAL BILIRUBIN [2]: 0.23 mg/dL
- TOTAL PROTEIN [2]: 5.73 G/DL
- URIC ACID [2]: 1.4 mg/dL
- ABSOLUTE BASOPHIL [3]: 0 CELLS/uL
- ABSOLUTE EOSINOPHIL [3]: 0 CELLS/uL
- ABSOLUTE LYMPHOCYTE [3]: 17006.67 CELLS/uL
- ABSOLUTE MONOCYTE [3]: 546.67 CELLS/uL
- ABSOLUTE SEGMENTED NEUTROPHIL [3]: 2113.33 CELLS/uL
- BASOPHIL [3]: 0%
- EOSINOPHIL [3]: 0%
- ERYTHROCYTE COUNT [3]: 5.57 x10E6/uL
- HEMATOCRIT [3]: 34.4%
- HEMOGLOBIN [3]: 12.93 G/DL
- LEUKOCYTE COUNT [3]: 19.67 x10E3/uL
- LYMPHOCYTE [3]: 86%
- MEAN CORPUSCULAR HEMOGLOBIN [3]: 23.2 pg
- MEAN CORPUSCULAR HEMOGLOBIN CONCENTRATION [3]: 37.6 G/DL
- MEAN CORPUSCULAR VOLUME [3]: 61.77 fL
- MONOCYTE [3]: 2.67%
- NEUTROPHIL [3]: 11.33%
- NUCLEATED RED BLOOD CELLS [3]: 0 /100WBC
- PLATELET COUNT [3]: 1503 x10E3/uL
- ALANINE AMINOTRANSFERASE [3]: 51 u/L
- ALBUMIN [3]: 3.47 G/DL
- ALKALINE PHOSPHATASE [3]: 278 u/L
- ASPARTATE AMINOTRANSFERASE [3]: 83.67 u/L
- BLOOD UREA NITROGEN [3]: 19 mg/dL
- CARBON DIOXIDE [3]: 27.33 mmol/L
- CHLORIDE [3]: 105 MEQ/L
- CHOLESTEROL [3]: 73.33 mg/dL
- CREATINE PHOSPHOKINASE [3]: 310 u/L
- CREATININE [3]: 0.35 mg/dL
- GLUCOSE [3]: 162 mg/dL
- LACTATE DEHYDROGENASE [3]: 102.67 u/L
- LIPASE [3]: 9.67 u/L
- PHOSPHORUS [3]: 11.3 mg/dL
- POTASSIUM [3]: 6.63 MEQ/L
- SODIUM [3]: 144.03 MEQ/L
- TOTAL BILIRUBIN [3]: 0.13 mg/dL
- TOTAL PROTEIN [3]: 5.8 G/DL
- URIC ACID [3]: 1.63 mg/dL
